Laboratory results: patent US10633419B2, “Immunomodulators” (BRISTOL-MYERS SQUIBB COMPANY, priority 2014, dated 2020)
Positions of bridges follow the written chain, without caps; N, C: chain ends. Non-standard residues stand in square brackets, D forms with d. Residues, ends and D or L forms follow the SMILES beside them. *: point of attachment. εLys(α-Octadecanedioyl) = O=C(O)CCCCCCCCCCCCCCCCC(=O)N[C@@H](CCCCN*)C(=O)O; Dap(Nα-HOOC(CH2)16CO)OH = O=C(O)CCCCCCCCCCCCCCCCC(=O)N[C@@H](CN*)C(=O)O; X6 = O=C(O)CCCCCCCCCCCCCCCCC(=O)N[C@@H](CCC(=O)NCCCOCCOCCOCCCN*)C(=O)O; X13 = O=C(O)CCCCCCCCCCCCCCC(=O)N[C@@H](CCC(=O)NCCCOCCOCCOCCCN*)C(=O)O; Trp(1-CH2COOH) = N[C@@H](Cc1cn(CC(=O)O)c2ccccc12)C(=O)O; d(cisHyp) = O=C(O)[C@H]1C[C@@H](O)CN1; PEG6 = NCCOCCOCCOCCOCCOCCOCCC(=O)O; Hyp = O=C(O)[C@@H]1C[C@@H](O)CN1; NMeNle = CCCC[C@H](NC)C(=O)O; NMeA = CN[C@@H](C)C(=O)O; Dab = NCC[C@H](N)C(=O)O; Dap = NC[C@H](N)C(=O)O; Sar = CNCC(=O)O

target: T1, PD-L1 (Homo sapiens, UniProt Q9NZQ7); experiment: PD-1/PD-L1 Homogenous Time-Resolved Fluorescence (HTRF) binding assay (PD-1-Ig/PD-L1-His); settings: inhibition of PD-1-Ig binding to PD-L1-TVMV-His; value given as number; read-out: HTRF IC50
T1 construct: hPDL1(19-239)-TVMV-His; made in house; host or cells: HEK293T
Outline: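 Inhibitors pre-incubated 15 min with PD-L1-His (10 nM final), then PD-1-Ig (20 nM final) added for 15 min in dPBS/0.1% BSA/0.05% Tween-20. Eu-cryptate anti-Ig (1 nM) and APC anti-His (20 nM) added, 30 min equilibration, 665/620 nm HTRF ratio read.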

T1 sequence (Q9NZQ7 with tags, fused parts or gaps): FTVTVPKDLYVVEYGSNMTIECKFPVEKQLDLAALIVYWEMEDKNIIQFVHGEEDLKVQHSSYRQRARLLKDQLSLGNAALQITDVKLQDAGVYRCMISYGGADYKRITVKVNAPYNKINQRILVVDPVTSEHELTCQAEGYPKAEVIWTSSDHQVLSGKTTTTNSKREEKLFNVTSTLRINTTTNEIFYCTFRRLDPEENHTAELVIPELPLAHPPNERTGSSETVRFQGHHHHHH

| IC50 | SMILES |
| --- | --- |
| 3 nM | CCCC[C@H]1C(=O)N(C)[C@@H](CCCC)C(=O)N[C@@H](CC(C)C)C(=O)N[C@H](C(=O)NCC(=O)N[C@@H](CC(=O)NCCCOCCOCCOCCCNC(=O)CC[C@H](NC(=O)CCCCCCCCCCCCCCCCC(=O)O)C(=O)O)C(=O)O)CSCC(=O)N[C@@H](Cc2ccc(O)cc2)C(=O)N(C)[C@@H](C)C(=O)N[C@@H](CC(N)=O)C(=O)N2CCC[C@H]2C(=O)N[C@@H](Cc2c[nH]cn2)C(=O)N[C@@H](CCC(=O)O)C(=O)N2C[C@H](O)C[C@H]2C(=O)N[C@@H](Cc2c[nH]c3ccccc23)C(=O)N[C@@H](CCN)C(=O)N[C@@H](Cc2cn(CC(=O)O)c3ccccc23)C(=O)N1C [Example 11179] ({CH2CO}-Y[NMeA]NPHE[Hyp]W[Dab][Trp(1-CH2COOH)][NMeNle][NMeNle]LCGD(X6)-OH; thioether N-14) |

same assay, conditions: inhibition of PD-1-Ig binding to PD-L1-TVMV-His; value given as range class; read-out: HTRF IC50

| IC50 | SMILES |
| --- | --- |
| 0.3 to 9.9 nM | CCCC[C@H]1C(=O)N(C)[C@@H](CCCC)C(=O)N[C@@H](CC(C)C)C(=O)C[C@H](C(=O)NCC(=O)N[C@@H](CCC(=O)O)C(=O)NCCCOCCOCCOCCCNC(=O)CC[C@H](NC(=O)CCCCCCCCCCCCCCCCC(=O)O)C(=O)O)CSCC(=O)N[C@@H](Cc2ccc(O)cc2)C(=O)N(C)[C@@H](C)C(=O)N[C@@H](CC(N)=O)C(=O)N2CCC[C@H]2C(=O)N[C@@H](CN)C(=O)N[C@@H](CC(C)C)C(=O)N2C[C@H](O)C[C@H]2C(=O)N[C@@H](Cc2c[nH]c3ccccc23)C(=O)N[C@@H](CCN)C(=O)N[C@@H](Cc2cn(CC(=O)O)c3ccccc23)C(=O)N1C [Example 11167] |
| 0.3 to 9.9 nM | CCCC[C@H]1C(=O)N(C)[C@@H](CCCC)C(=O)N[C@@H](CC(C)C)C(=O)N[C@H](C(=O)NCC(=O)NCCCOCCOCCOCCCNC(=O)CC[C@H](NC(=O)CCCCCCCCCCCCCCC(=O)O)C(=O)O)CSCC(=O)N[C@@H](Cc2ccc(O)cc2)C(=O)N(C)[C@@H](C)C(=O)N[C@@H](CC(N)=O)C(=O)N2CCC[C@@H]2C(=O)N[C@@H](CN)C(=O)N[C@@H](CC(C)C)C(=O)N2C[C@H](O)C[C@@H]2C(=O)N[C@@H](Cc2c[nH]c3ccccc23)C(=O)N[C@@H](CCN)C(=O)N[C@@H](Cc2cn(CC(=O)O)c3ccccc23)C(=O)N1C [Example 11168] ({CH2CO}-Y[NMeA]N[dP][Dap]L[d(cisHyp)]W[Dab][Trp(1-CH2COOH)][NMeNle][NMeNle]LCG-X13; thioether N-14) |
| 0.3 to 9.9 nM | CCCC[C@H]1C(=O)N(C)[C@@H](CCCC)C(=O)N[C@@H](CC(C)C)C(=O)N[C@H](C(=O)NCC(=O)N[C@@H](CC(=O)O)C(=O)N[C@@H](CCC(=O)NCCCOCCOCCOCCCNC(=O)CC[C@H](NC(=O)CCCCCCCCCCCCCCC(=O)O)C(=O)O)C(=O)O)CSCC(=O)N[C@@H](Cc2ccc(O)cc2)C(=O)N(C)[C@@H](C)C(=O)N[C@@H](CC(N)=O)C(=O)N2CCC[C@H]2C(=O)N[C@@H](CN)C(=O)N[C@@H](CC(C)C)C(=O)N2C[C@H](O)C[C@H]2C(=O)N[C@@H](Cc2c[nH]c3ccccc23)C(=O)N[C@@H](CCN)C(=O)N[C@@H](Cc2cn(CC(=O)O)c3ccccc23)C(=O)N1C [Example 11170] ({CH2CO}-Y[NMeA]NP[Dap]L[Hyp]W[Dab][Trp(1-CH2COOH)][NMeNle][NMeNle]LCGDE(X13)-OH; thioether N-14) |
| 0.3 to 9.9 nM | CCCC[C@H]1C(=O)N(C)[C@@H](CCCC)C(=O)N[C@@H](CC(C)C)C(=O)N[C@H](C(=O)N(C)CC(=O)NCCCOCCOCCOCCCNC(=O)CC[C@H](NC(=O)CCCCCCCCCCCCCCC(=O)O)C(=O)O)CSCC(=O)N[C@@H](Cc2ccc(O)cc2)C(=O)N(C)[C@@H](C)C(=O)N[C@@H](CC(N)=O)C(=O)N2CCC[C@H]2C(=O)N[C@@H](CN)C(=O)N[C@@H](CC(C)C)C(=O)N2C[C@H](O)C[C@H]2C(=O)N[C@@H](Cc2c[nH]c3ccccc23)C(=O)N[C@@H](CCN)C(=O)N[C@@H](Cc2cn(CC(=O)O)c3ccccc23)C(=O)N1C [Example 11171] ({CH2CO}-Y[NMeA]NP[Dap]L[Hyp]W[Dab][Trp(1-CH2COOH)][NMeNle][NMeNle]LC[Sar]-X13; thioether N-14) |
| 10 to 99 nM | CCCC[C@H]1C(=O)N(C)[C@@H](CCCC)C(=O)N[C@@H](CC(C)C)C(=O)N[C@H](C(=O)NCC(=O)N[C@@H](CC(=O)NC[C@H](NC(=O)CCCCCCCCCCCCCCCCC(=O)O)C(=O)O)C(=O)O)CSCC(=O)N[C@@H](Cc2ccc(O)cc2)C(=O)N(C)[C@@H](C)C(=O)N[C@@H](CC(N)=O)C(=O)N2CCC[C@H]2C(=O)N[C@@H](CN)C(=O)N[C@@H](CC(C)C)C(=O)N2C[C@H](O)C[C@H]2C(=O)N[C@@H](Cc2c[nH]c3ccccc23)C(=O)N[C@@H](CCN)C(=O)N[C@@H](Cc2cn(CC(=O)O)c3ccccc23)C(=O)N1C [Example 11172] ({CH2CO}-Y[NMeA]NP[Dap]L[Hyp]W[Dab][Trp(1-CH2COOH)][NMeNle][NMeNle]LCGD(Dap(Nα-HOOC(CH2)16CO)OH)-OH; thioether N-14) |
| 100 to 1600 nM | CCCC[C@H]1C(=O)N(C)[C@@H](CCCC)C(=O)N[C@@H](CC(C)C)C(=O)N[C@H](C(=O)NCC(=O)N[C@@H](CCC(=O)NC[C@H](NC(=O)CCCCCCCCCCCCCCCCC(=O)O)C(=O)O)C(=O)O)CSCC(=O)N[C@@H](Cc2ccc(O)cc2)C(=O)N(C)[C@@H](C)C(=O)N[C@@H](CC(N)=O)C(=O)N2CCC[C@H]2C(=O)N[C@@H](CN)C(=O)N[C@@H](CC(C)C)C(=O)N2C[C@H](O)C[C@H]2C(=O)N[C@@H](Cc2c[nH]c3ccccc23)C(=O)N[C@@H](CCN)C(=O)N[C@@H](Cc2cn(CC(=O)O)c3ccccc23)C(=O)N1C [Example 11173] ({CH2CO}-Y[NMeA]NP[Dap]L[Hyp]W[Dab][Trp(1-CH2COOH)][NMeNle][NMeNle]LCGE(Dap(Nα-HOOC(CH2)16CO)OH)-OH; thioether N-14) |
| 10 to 99 nM | CCCC[C@H]1C(=O)N(C)[C@@H](CCCC)C(=O)N[C@@H](CCC(=O)O)C(=O)N[C@H](C(=O)NCC(=O)N[C@@H](CC(=O)NCCCOCCOCCOCCCNC(=O)CC[C@H](NC(=O)CCCCCCCCCCCCCCCCC(=O)O)C(=O)O)C(=O)O)CSCC(=O)N[C@@H](Cc2ccc(O)cc2)C(=O)N(C)[C@@H](C)C(=O)N[C@@H](CC(=O)O)C(=O)N(C)CC(=O)N[C@@H](Cc2c[nH]cn2)C(=O)N[C@@H](CCCCN)C(=O)N2C[C@H](O)C[C@H]2C(=O)N[C@@H](Cc2c[nH]c3ccccc23)C(=O)N[C@@H](CCN)C(=O)N[C@@H](Cc2cn(CC(=O)O)c3ccccc23)C(=O)N1C [Example 11174] ({CH2CO}-Y[NMeA]D[Sar]HK[Hyp]W[Dab][Trp(1-CH2COOH)][NMeNle][NMeNle]ECGD(X6)-OH; thioether N-14) |
| 10 to 99 nM | CCCC[C@H]1C(=O)N(C)[C@@H](CCCC)C(=O)N[C@@H](CC(C)C)C(=O)N[C@H](C(=O)NCC(=O)N[C@@H](CC(=O)NCCCC[C@H](NC(=O)CCCCCCCCCCCCCCCCC(=O)O)C(=O)O)C(=O)O)CSCC(=O)N[C@@H](Cc2ccc(O)cc2)C(=O)N(C)[C@@H](C)C(=O)N[C@@H](CC(N)=O)C(=O)N2CCC[C@H]2C(=O)N[C@@H](CN)C(=O)N[C@@H](CC(C)C)C(=O)N2C[C@H](O)C[C@H]2C(=O)N[C@@H](Cc2c[nH]c3ccccc23)C(=O)N[C@@H](CCN)C(=O)N[C@@H](Cc2cn(CC(=O)O)c3ccccc23)C(=O)N1C [Example 11176] ({CH2CO}-Y[NMeA]NP[Dap]L[Hyp]W[Dab][Trp(1-CH2COOH)][NMeNle][NMeNle]LCGD(εLys(α-Octadecanedioyl))-OH; thioether N-14) |
| 100 to 1600 nM | CCCC[C@H]1C(=O)N(C)[C@@H](CCCC)C(=O)N[C@@H](CC(C)C)C(=O)N[C@H](C(=O)NCC(=O)N[C@@H](CCC(=O)NCCCC[C@H](NC(=O)CCCCCCCCCCCCCCCCC(=O)O)C(=O)O)C(=O)O)CSCC(=O)N[C@@H](Cc2ccc(O)cc2)C(=O)N(C)[C@@H](C)C(=O)N[C@@H](CC(N)=O)C(=O)N2CCC[C@H]2C(=O)N[C@@H](CN)C(=O)N[C@@H](CC(C)C)C(=O)N2C[C@H](O)C[C@H]2C(=O)N[C@@H](Cc2c[nH]c3ccccc23)C(=O)N[C@@H](CCN)C(=O)N[C@@H](Cc2cn(CC(=O)O)c3ccccc23)C(=O)N1C [Example 11177] ({CH2CO}-Y[NMeA]NP[Dap]L[Hyp]W[Dab][Trp(1-CH2COOH)][NMeNle][NMeNle]LCGE(εLys(α-Octadecanedioyl))-OH; thioether N-14) |
| 0.3 to 9.9 nM | CCCC[C@H]1C(=O)N(C)[C@@H](CCCC)C(=O)N[C@@H](CC(C)C)C(=O)N[C@H](C(=O)NCC(=O)N[C@@H](CC(=O)NCCCOCCOCCOCCCNC(=O)CC[C@H](NC(=O)CCCCCCCCCCCCCCCCC(=O)O)C(=O)O)C(=O)O)CSCC(=O)N[C@@H](Cc2ccc(O)cc2)C(=O)N(C)[C@@H](C)C(=O)N[C@@H](CC(=O)O)C(=O)N2CCC[C@H]2C(=O)N[C@@H](CN)C(=O)N[C@@H](CCC(=O)O)C(=O)N2C[C@H](O)C[C@H]2C(=O)N[C@@H](Cc2c[nH]c3ccccc23)C(=O)N[C@@H](CCN)C(=O)N[C@@H](Cc2cn(CC(=O)O)c3ccccc23)C(=O)N1C [Example 11178] ({CH2CO}-Y[NMeA]DP[Dap]E[Hyp]W[Dab][Trp(1-CH2COOH)][NMeNle][NMeNle]LCGD(X6)-OH; thioether N-14) |
| 10 to 99 nM | CCCC[C@H]1C(=O)N(C)[C@@H](CCCC)C(=O)N[C@@H](CC(C)C)C(=O)N[C@H](C(=O)NCCOCCOCCOCCOCCOCCOCCC(=O)NC[C@H](NC(=O)CCCCCCCCCCCCCCCCC(=O)O)C(=O)O)CSCC(=O)N[C@@H](Cc2ccc(O)cc2)C(=O)N(C)[C@@H](C)C(=O)N[C@@H](CC(N)=O)C(=O)N2CCC[C@H]2C(=O)N[C@@H](CN)C(=O)N[C@@H](CC(C)C)C(=O)N2C[C@H](O)C[C@H]2C(=O)N[C@@H](Cc2c[nH]c3ccccc23)C(=O)N[C@@H](CCN)C(=O)N[C@@H](Cc2cn(CC(=O)O)c3ccccc23)C(=O)N1C [Example 11180] ({CH2CO}-Y[NMeA]NP[Dap]L[Hyp]W[Dab][Trp(1-CH2COOH)][NMeNle][NMeNle]LC[PEG6]-{Dap(Nα-HOOC(CH2)16CO)OH}; thioether N-14) |
